15 compounds from ChEMBL document CHEMBL4819093, “Discovery of 1-[2-(1-methyl-1H-pyrazol-5-yl)-[1,2,4]triazolo[1,5-a]pyridin-6-yl]-3-(pyridin-4-ylmethyl)urea as a potent NAMPT (nicotinamide phosphoribosyltransferase) activator with attenuated CYP inhibition” (Bioorg Med Chem Lett, 2021) can be followed below.

One data set has as its target CYP2C9 (Homo sapiens, UniProt P11712). Put plainly: Inhibition of CYP2C9 (unknown origin) at 10 uM measured after 10 mins. The format is ADME.
Another data set addresses CYP3A4 (Homo sapiens, UniProt P08684). In words: Inhibition of CYP3A4 (unknown origin) at 10 uM measured after 10 mins. The format is ADME.
The target of another data set is CYP2D6 (Homo sapiens, UniProt P10635). In words: Inhibition of CYP2D6 (unknown origin) at 10 uM measured after 10 mins. In kind it is ADME.
Sequence of CYP2D6 (P10635 whole entry): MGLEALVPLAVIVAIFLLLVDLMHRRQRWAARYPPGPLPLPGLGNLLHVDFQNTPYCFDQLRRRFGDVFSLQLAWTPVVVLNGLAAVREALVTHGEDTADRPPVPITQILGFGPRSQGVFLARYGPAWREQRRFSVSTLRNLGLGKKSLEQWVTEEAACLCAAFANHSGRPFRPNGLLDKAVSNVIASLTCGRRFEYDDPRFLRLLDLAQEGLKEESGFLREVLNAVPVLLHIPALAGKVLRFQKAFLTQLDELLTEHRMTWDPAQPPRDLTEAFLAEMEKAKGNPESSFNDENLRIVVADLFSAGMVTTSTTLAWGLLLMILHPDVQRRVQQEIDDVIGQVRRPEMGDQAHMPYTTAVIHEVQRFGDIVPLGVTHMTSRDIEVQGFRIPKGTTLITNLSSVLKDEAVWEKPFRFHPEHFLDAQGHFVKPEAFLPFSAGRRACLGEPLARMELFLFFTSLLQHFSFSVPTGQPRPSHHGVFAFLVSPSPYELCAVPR
The next data set addresses T1, CYP1A2 (Homo sapiens, UniProt P05177).
T1 sequence (P05177 whole entry): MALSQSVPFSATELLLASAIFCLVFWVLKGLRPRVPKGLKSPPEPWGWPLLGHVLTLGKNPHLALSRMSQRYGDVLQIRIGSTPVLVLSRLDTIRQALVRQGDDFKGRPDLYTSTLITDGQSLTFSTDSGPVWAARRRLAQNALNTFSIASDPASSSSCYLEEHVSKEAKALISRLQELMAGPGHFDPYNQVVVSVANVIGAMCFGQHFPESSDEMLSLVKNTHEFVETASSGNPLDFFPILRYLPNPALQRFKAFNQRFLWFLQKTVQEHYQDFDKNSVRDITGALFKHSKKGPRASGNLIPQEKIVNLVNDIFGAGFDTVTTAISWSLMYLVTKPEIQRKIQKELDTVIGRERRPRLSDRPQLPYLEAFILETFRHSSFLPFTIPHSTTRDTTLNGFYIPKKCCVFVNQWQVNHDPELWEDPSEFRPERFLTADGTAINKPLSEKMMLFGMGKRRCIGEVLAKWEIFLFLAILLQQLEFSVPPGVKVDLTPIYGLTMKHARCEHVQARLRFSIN
In words: Inhibition of CYP1A2 (unknown origin) at 10 uM measured after 10 mins. The format is ADME.

The target in data set [1] is T2, Nicotinamide phosphoribosyltransferase (Homo sapiens, UniProt P43490). Put plainly: Activation of human NAMPT assessed as increase in NMN production by fluorescence based analysis.
T2 sequence (P43490 whole entry): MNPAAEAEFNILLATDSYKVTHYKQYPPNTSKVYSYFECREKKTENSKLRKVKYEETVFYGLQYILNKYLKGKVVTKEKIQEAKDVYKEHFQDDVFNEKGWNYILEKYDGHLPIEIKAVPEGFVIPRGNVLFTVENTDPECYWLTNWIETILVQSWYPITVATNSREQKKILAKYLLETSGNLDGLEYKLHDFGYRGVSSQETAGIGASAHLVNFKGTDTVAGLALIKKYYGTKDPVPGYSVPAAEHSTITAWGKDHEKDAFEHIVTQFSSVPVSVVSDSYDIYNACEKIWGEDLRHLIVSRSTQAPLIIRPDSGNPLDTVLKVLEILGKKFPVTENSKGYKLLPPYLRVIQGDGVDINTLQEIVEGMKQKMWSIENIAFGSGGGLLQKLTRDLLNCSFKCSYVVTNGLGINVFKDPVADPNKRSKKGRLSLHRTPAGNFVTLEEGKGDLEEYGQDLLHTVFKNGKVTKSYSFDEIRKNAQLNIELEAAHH
Data set [2] has as its target T3, hERG (KCNH2) (Homo sapiens, UniProt Q12809). Put plainly: Inhibition of human ERG at 3 uM.
Data set [3] has as its target T3, hERG (KCNH2). In words: Inhibition of human ERG at 30 uM.
Data set [4] has as its target T3, hERG (KCNH2). In words: Inhibition of human ERG at 10 uM.
Data set [5] is described as follows: Metabolic stability in human microsome assessed as parent compound remaining at 1 uM measured after 30 mins. The note with it: microsomes.
Data set [6] can be described thus: 1-Octanol/PBS buffer distribution coefficient, log D of the compound at pH 7.4.
Data set [7] is described as follows: Permeability of the compound at pH 5 by PAMPA. Background: The PAMPA barrier holds no transporters, so it reflects passive diffusion.
Data set [8] is described as follows: Permeability of the compound at pH 7.4 by PAMPA.
The nature of data set [9]: Metabolic stability in mouse microsome fraction assessed as parent compound remaining at 1 uM measured after 30 mins. The note with it: microsomes.
A short description of data set [10]: Half life in C57BL/6N mouse at 10 mg/kg, po. The note with it: in vivo.
A short description of data set [11]: Solubility of the compound at pH 1.2. The note with it: buffer.
Data set [12] can be described thus: in vivo. Conditions: C57BL/6N, mouse, po, 10 mg/kg.
Data set [13] is described as follows: in vivo. The note with it: C57BL/6N, mouse, po, 10 mg/kg. This is another data set of the same source.
Data set [14] can be described thus: Solubility of the compound at pH 6.8. Conditions: buffer.
For data set [15], the target named is T2, Nicotinamide phosphoribosyltransferase. In words: Inhibition of human NAMPT assessed as decrease in NMN production by fluorescence based analysis.

≈ marks a conversion by molar mass, not a printed value.

T3 sequence (Q12809 whole entry): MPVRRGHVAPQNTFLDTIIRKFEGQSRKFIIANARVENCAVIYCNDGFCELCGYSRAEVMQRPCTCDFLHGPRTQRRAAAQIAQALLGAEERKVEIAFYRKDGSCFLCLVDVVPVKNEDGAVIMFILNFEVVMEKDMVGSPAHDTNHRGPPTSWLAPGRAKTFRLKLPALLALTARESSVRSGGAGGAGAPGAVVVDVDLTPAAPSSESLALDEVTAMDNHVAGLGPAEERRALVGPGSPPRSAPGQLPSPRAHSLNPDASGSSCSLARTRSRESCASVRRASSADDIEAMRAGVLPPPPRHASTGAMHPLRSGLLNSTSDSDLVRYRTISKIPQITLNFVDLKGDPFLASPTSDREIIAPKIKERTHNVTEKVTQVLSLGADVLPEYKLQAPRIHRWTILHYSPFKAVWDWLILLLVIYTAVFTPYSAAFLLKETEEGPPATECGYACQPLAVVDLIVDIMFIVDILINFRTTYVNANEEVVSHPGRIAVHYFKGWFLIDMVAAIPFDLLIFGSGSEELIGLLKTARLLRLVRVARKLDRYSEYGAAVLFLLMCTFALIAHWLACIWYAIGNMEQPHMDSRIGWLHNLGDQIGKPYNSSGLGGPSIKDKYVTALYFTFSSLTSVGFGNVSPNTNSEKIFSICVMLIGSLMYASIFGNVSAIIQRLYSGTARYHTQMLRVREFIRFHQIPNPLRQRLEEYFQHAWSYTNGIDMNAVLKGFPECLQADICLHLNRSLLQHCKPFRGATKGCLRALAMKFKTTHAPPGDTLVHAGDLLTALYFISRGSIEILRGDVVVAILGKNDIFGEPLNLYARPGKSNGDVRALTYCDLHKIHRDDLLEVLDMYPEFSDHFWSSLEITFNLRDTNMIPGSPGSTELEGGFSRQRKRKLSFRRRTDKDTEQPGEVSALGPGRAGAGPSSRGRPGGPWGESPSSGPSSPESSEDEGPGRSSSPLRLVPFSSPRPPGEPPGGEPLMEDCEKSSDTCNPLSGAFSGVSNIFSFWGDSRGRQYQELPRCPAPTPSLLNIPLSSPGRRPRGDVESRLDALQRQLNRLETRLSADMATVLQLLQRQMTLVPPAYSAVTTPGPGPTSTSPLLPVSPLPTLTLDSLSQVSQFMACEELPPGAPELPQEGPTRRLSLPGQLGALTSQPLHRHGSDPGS
Sequence of CYP3A4 (P08684 whole entry): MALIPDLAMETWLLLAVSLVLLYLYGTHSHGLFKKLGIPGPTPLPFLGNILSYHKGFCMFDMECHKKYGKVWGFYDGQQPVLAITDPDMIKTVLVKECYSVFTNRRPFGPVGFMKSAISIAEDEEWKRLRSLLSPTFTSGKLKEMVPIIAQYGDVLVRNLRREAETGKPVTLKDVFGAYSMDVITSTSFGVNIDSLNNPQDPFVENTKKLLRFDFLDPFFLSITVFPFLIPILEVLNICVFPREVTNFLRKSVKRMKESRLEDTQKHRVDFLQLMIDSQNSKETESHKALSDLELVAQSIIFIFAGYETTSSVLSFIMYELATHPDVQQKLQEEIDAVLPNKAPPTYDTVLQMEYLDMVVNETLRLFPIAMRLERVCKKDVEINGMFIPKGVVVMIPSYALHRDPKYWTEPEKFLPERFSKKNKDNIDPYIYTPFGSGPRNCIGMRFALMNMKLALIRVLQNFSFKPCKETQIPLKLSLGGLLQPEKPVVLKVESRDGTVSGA
Sequence of CYP2C9 (P11712 whole entry): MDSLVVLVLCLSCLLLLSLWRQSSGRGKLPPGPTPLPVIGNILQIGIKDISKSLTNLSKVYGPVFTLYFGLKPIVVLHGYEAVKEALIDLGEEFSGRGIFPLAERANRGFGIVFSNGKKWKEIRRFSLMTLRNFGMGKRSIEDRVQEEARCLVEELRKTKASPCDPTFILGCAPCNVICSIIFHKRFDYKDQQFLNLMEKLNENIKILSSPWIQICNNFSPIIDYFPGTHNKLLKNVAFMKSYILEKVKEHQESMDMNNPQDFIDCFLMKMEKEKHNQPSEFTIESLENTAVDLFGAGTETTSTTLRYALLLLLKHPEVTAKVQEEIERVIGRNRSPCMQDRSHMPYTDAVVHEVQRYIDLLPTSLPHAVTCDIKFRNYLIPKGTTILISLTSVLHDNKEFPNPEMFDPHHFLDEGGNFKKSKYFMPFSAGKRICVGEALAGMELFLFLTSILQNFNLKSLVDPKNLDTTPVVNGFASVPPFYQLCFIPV

Turning to `O=C(NCc1ccncc1)Nc1ccc2nc(-c3ccccc3OC(F)(F)F)nn2c1`, the inhibition (in general, the share of the control response that was lost under treatment) at 10 min, 10 µM at CYP2C9 was 78%; against CYP3A4 it was 65%; on CYP2D6 it was 50%; at CYP1A2, 43%.
In the case of `Cc1ccc(C(=O)N2CCc3cc(NC(=O)NCc4ccncc4)ccc32)cc1`, the concentration for a half-maximal effect (EC50) (as a rule, the concentration giving half of the maximal effect) in data set [1] amounted to 480 nM.
For the compound `Cn1nccc1-c1nc2ccc(NC(=O)NCc3ccncc3)cn2n1`, the inhibition at 10 min, 10 µM against CYP2C9 was 42%; at CYP3A4, 25%; at CYP2D6, 16%; at CYP1A2, 15%. At hERG (KCNH2) [2], the inhibition at 3 µM is 11%. The compound further yielded an inhibition at 30 µM on hERG (KCNH2) [3] of 25%. The same compound showed an inhibition at 10 µM on hERG (KCNH2) [4] of 14%.
`O=C(NCc1ccncc1)Nc1ccc2nc(-c3cccc(OC(F)(F)F)c3)nn2c1`: the inhibition at 10 min, 10 µM against CYP2C9 came out at 90%; against CYP3A4 it was 0%; against CYP2D6 it was 36%; against CYP1A2, 28%.
Take `CC(C)n1nccc1-c1nc2ccc(NC(=O)NCc3ccncc3)cn2n1`: the inhibition at 10 min, 10 µM at CYP2C9 was 79%; on CYP3A4 it was 4%; against CYP2D6, 17%; against CYP1A2 it was 12%.
Turning to `COCCn1nccc1-c1nc2ccc(NC(=O)NCc3ccncc3)cn2n1`, the inhibition at 10 min, 10 µM on CYP2C9 came out at 44%; on CYP3A4, 18%; at CYP2D6, 13%; against CYP1A2, 6%.
Consider `O=C(NCc1ccncc1)Nc1ccc2cn(-c3ccccc3)nc2c1`, for which the inhibition at 10 min, 10 µM at CYP2C9 worked out at 74%; on CYP3A4 it was 75%; against CYP2D6 it was 50%; at CYP1A2, 88%. Also, the amount remaining (as a rule, what is left of the initial amount, in per cent) at 0.5 h, 1 µM in [5] was 87%; in data set [9], 83%. Moreover, in [6], the logD (commonly lipophilicity at a set pH, counting ionised and neutral species) came to 3.2. For the same compound, the apparent permeability coefficient (Papp) – broadly, a coefficient for how fast a substance crosses the barrier – in data set [7] is 4.6 ×10⁻⁶ cm/s; in [8] it was more than 5 ×10⁻⁶ cm/s.
`O=C(NCc1ccncc1)Nc1ccc2nc(-c3ccccc3)nn2c1`: the inhibition at 10 min, 10 µM against CYP2C9 was determined as 79%; at CYP3A4 it was 37%; against CYP2D6, 21%; against CYP1A2, 63%. Moreover, the half-life – broadly, the time in which the quantity being followed falls by half – in data set [10] is 54 min. Also, the values for the fraction remaining at 0.5 h, 1 µM in [5] and in data set [9] were 95% and 86%, respectively. The compound also showed an inhibition at 3 µM against hERG (KCNH2) [2] of 20%. This compound displayed an inhibition at 30 µM on hERG (KCNH2) [3] of 69%. For the same compound, the figures for the solubility in data set [11] and in [14] were more than 680 µg/mL and 92 µg/mL (≈ 267 µM), respectively. In addition, the EC50 in data set [1] was determined as 83 nM. The compound further yielded an inhibition at 10 µM on hERG (KCNH2) [4] of 51%. The AUC(0-t) (as a rule, the area under the concentration-time curve up to a stated or last time point) at 24 h in the data set “in vivo [12]” was found to be 25 µM·h. Besides, in the data set “in vivo [13]”, the highest concentration (Cmax) (commonly the maximum level reached in the sampled fluid or tissue) was 9.2 µM. For the same compound, the pH-dependent lipophilicity (logD) in data set [6] is 3. The Papp in [7] is 1.42 ×10⁻⁶ cm/s; in data set [8], 2.76 ×10⁻⁶ cm/s.
Turning to `O=C(NCc1cn[nH]c1)Nc1ccc2nc(-c3ccccc3)nn2c1`, the inhibition at 10 min, 10 µM at CYP2C9 turned out to be 59%; against CYP3A4 it was 0%; against CYP2D6, 23%; at CYP1A2, 86%.
The like results for `O=C(NCc1ccncc1)Nc1ccc2cc(-c3ccccc3)nn2c1` were, in that order, 78%, 53%, 70% and 81%.
Consider `O=C(NCc1ccncc1)Nc1ccc2nc(-c3ccc(OC(F)(F)F)cc3)nn2c1`, for which the inhibition at 10 min, 10 µM against CYP2C9 was found to be 81%; against CYP3A4, 0%; against CYP2D6 it was 24%; against CYP1A2, 8%. Further, in data set [1], the concentration for a half-maximal effect (EC50) is more than 100000 nM. Also, the log distribution coefficient (logD) in [6] turned out to be 4.4.
With `CC(C)c1nc2ccc(NC(=O)NCc3ccncc3)cn2n1`, in [1], the EC50 was determined as 5800 nM.
For `Cn1cccc1-c1nc2ccc(NC(=O)NCc3ccncc3)cn2n1`, the inhibition at 10 min, 10 µM against CYP2C9 is 75%; against CYP3A4, 40%; against CYP2D6, 27%; on CYP1A2, 51%. Besides, the concentration for a half-maximal effect (EC50) in data set [1] turned out to be 120 nM. Further, the logD in data set [6] was 2.6.
As to `Cc1ccc(C(=O)N2CCc3cc(NC(=O)NCc4cccnc4)ccc32)cc1`, the concentration for half-maximal inhibition (IC50) (as a rule, the concentration at which inhibition is half-maximal) in data set [15] is 32 nM.
As for `O=C(NCc1cnco1)Nc1ccc2nc(-c3ccccc3)nn2c1`, the inhibition at 10 min, 10 µM against CYP2C9 is 59%; on CYP3A4, 0%; against CYP2D6, 13%; against CYP1A2, 69%.
